According to US20020173452A1, “Cytostatic-glycoconjugates having specifically cleavable linking units” (priority 2000, published 2002):
pIC50: −log10 of the molar value. *1 amine or outer side, *2 acyl side, *3 side chain or, on linkers, in order; H or OH if unused. Where a SMILES comes first, the peptide text is derived from it. [ ]: non-standard residue; d: D form. The star is where a group is joined. X1 = CO[C@H]1[C@@H](O)[C@@H](C)OC(Oc2ccc(NC(=S)*)cc2)[C@H]1O; X2 = CC[C@@]1(O*)C(=O)OCc2c1cc1n(c2=O)Cc2cc3ccccc3nc2-1; X3 = CO[C@H]1[C@@H](O)[C@@H](C)OC(Oc2ccc(N*)cc2)[C@H]1O; CO = O=C([*:1])[*:2]

Tests used:
[1] = system: hemopoietic stem cells (bone marrow cells); assay: cells; assay type: cell-based, mice; conditions: murine bone marrow cells, recombinant murine GM-CSF, 7 days
Description: C. CSF-Induced Proliferation of Hemopoietic Stem Cells
Bone marrow cells are flushed out of the femur of mice. 105 cells are incubated in McCoy 5A medium (0.3% agar) together with recombinant murine GM-CSF (Genzyme; parent cell colony formation) and the substances (10^−4 to 100 μg/ml) at 37° C. and 7% CO2. 7 days later, the colonies ([…]) and clusters (17-50 cells) are counted.

[2] = system: subcutaneously growing melanoma xenograft model (MEXF 989); assay: In-vivo inhibition of tumour growth using a nude mouse model; parameters: species or system athymic nude mice (NMRI nu/nu strain); conditions: for inhibition of the tumor growth (in words): subcutaneously growing melanoma xenograft MEXF 989, nude mice; for optimal T/C in % / lethality: MEXF 989 xenograft, nude mice, i.v. or i.p., day 1-3 and day 15-17; for lethality: dead/5 mice
From the text: B. In-Vivo Inhibition or Tumour Growth Using a Nude Mouse Model
In all in-vivo experiments for investigating the inhibition of tumour growth, athymic nude mice (NMRI nu/nu strain) were used. The tumour was developed by serial passage in nude mice. The human origin of the tumour was confirmed by isoenzymatic and immunohistochemical methods.
The tumour was implanted subcutaneously in both flanks of nu/nu nude mice 6 to 8 weeks old. The treatment was started, depending on the doubling time, as soon as the tumours had reached a diameter of 5-7 mm. The mice were assigned to the treatment group or the control group (5 mice per group having 8-10 assessable tumours) by randomization. The individual tumours of the control group all grew progressively.
The size of the tumours was measured in two dimensions by means of a slide gauge. The tumour volume, which correlated well with the cell count, was then used for all assessments. The volume was calculated according to the formula “length×breadth×breadth/2” ([a×b^2]/2, a and b represent two diameters arranged at right angles).
The values of the relative tumour volume (RTV) were calculated for each individual tumour by dividing the tumour size on day×with the tumour size on day 0 (at the time of randomization). The average values of the RTV were then used for the further assessment.
The inhibition of the increase of the tumour volume (tumour volume of the test group/control group, T/C, in percent) was the final measured value.
The compounds can be administered with a daily or an intermittent therapy schedule through a couple of days either by intraperitoneal, intravenious, oral or subcutaneous route.
The compounds are dissolved in water or in PEG400/water 2:1 and are administered intravenously or intraperitoneally from day 1-3 and day 15-17.

[3] = system: SW 480 human large intestine cell line; assay: Growth inhibition test (MTT) for cytotoxic properties on tumour cell lines; assay type: cell-based; conditions: SW480 cells, growth checked after day 6, read-out: IC50 of the cytotoxic action on tumour cell lines, SW480
Description: (§1) A: Growth Inhibition Test for the Determination of the Cytotoxic Properties on Various Tumour Cell Lines
(§2) The human large intestine cell lines SW 480 and HT29 (ATCC No. CCL 228 and HTB38 and the mouse melanoma cell line B16F10 (CRL 6475) were grown to confluence in Roux dishes in RPMI 1640 medium with addition of 10% FCS. They were then trypsinized and taken up in RPMI plus 10% FCS to a cell count of 50,000 cells or, for B16F10, 20,000 cells per ml. 100 μl of cell suspension/well were added to a 96 microwell plate and incubated at 37° C. for 1 day in a CO2 incubator. A further 100 μl of RPMI medium and 1 μl of DMSO were then added with the test substances. The growth was checked after day 6. For this, 25 μl of MTT solution (3-(4,5-dimethylthiazol-2-yl)-2,5-diphenyltetrazolium bromide) was added to each well at a starting concentration of 5 mg/ml of H2O. The plate was incubated at 37° C. for 5 hours in a CO2 incubator. The medium was then aspirated and 100 μl of 1-propanol/well were added. After shaking with 100 μl of H2O for 30 min, the extinction was measured at 595 nm using a Multiplate Reader (BIO-RAD 3550-UV).
(§3) The cytostatic action is indicated in Table 1 as an IC50 value, in each case for the individual cell lines.

[4] = system: HT29 human large intestine cell line; assay: as above; assay type: cell-based; conditions: HT29 cells, growth checked after day 6, read-out: IC50 of the cytotoxic action on tumour cell lines, HT29
Description: as §1, §2, §3

[5] = system: B16F10 mouse melanoma cell line; assay: as above; assay type: cell-based; conditions: B16F10 cells, growth checked after day 6, read-out: IC50 of the cytotoxic action on tumour cell lines, B16F10
Description: as §1, §2, §3

MMP-2 = biological target: T1, MMP-2 (Homo sapiens, UniProt P08253); assay: Cleavage of conjugates by MMP-2 in buffer; assay type: biochemical; conditions: after 6 h incubation with MMP-2 in buffer pH 7.5, HPLC peak areas
T1 construct: purchased Calbiochem
T1 sequence (P08253 110-660): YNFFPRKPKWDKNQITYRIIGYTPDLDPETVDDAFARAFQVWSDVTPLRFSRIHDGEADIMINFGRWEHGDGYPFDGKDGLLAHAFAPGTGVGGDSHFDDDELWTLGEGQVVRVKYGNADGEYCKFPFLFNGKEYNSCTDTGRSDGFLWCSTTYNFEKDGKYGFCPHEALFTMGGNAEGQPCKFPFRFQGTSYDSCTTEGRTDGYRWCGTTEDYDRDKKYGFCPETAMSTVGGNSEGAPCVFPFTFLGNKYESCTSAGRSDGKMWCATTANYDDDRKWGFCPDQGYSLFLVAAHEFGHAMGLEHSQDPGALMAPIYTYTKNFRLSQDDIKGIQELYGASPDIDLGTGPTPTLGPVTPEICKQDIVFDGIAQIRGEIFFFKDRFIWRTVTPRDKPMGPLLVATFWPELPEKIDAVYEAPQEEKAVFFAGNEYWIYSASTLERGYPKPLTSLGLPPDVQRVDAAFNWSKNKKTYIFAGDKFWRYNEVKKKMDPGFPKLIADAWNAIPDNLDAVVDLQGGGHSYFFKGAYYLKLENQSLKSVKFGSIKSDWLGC
Description: D. Cleavage of Conjugates by MMP-2 in Buffer
2.5 μl MMP-2 (Calbiochem) with a specific activity of 60μU/μl are incubated with 10 nM of the conjugates exemplified in the example series 1-25 in 1 ml of a medium consisting of 50 mM Tris-HCl pH 7.5, 0.2 M NaCl, 10 mM CaCl2*2H2O and 0,05% Brij 35. The enzyme mediated cleavage of the conjugates is detected by HPLC analysis using an RP18 (5 μM) column with 70% HClO4 /water (0.4% v/v) as eluent A and acetonitrile as eluent B (UV detection at […]). The efficiency of the cleavage is assessed by comparing the peak areas of the intact conjugate (starting material) and the cleavage product (tripeptide conjugate of camptothecin) after 6 h and 24 h incubation (cf, Table 4).

SMILES | IC50 ([1]; Mus musculus, Bone marrow cell, 168 h, read-out: IC50 of inhibition of colony counts of hemopoietic stem cells) [µg/mL] | inhibition of the tumor growth (in words) [2] | pIC50 [3] | pIC50 [4] | optimal T/C in % ([2]; 8 mg/kg/day) [%] | lethality ([2]; 8 mg/kg/day) | pIC50 [5] | MMP-2 mediated cleavage, peak area product/educt × 100 (MMP-2) | IC50 of inhibition of colony counts of hemopoietic stem cells [1] [µg/mL] | optimal T/C in % ([2]; 6 mg/kg/day) [%] | lethality ([2]; 6 mg/kg/day)
CC[C@@]1(O)C(=O)OCc2c1cc1n(c2=O)Cc2cc3ccccc3nc2-1 [Camptothecin, 20(S)-Camptothecin, reference compound] | 0.00025 |  |  |  |  |  |  |  |  |  | 
CC[C@@]1(OC(=O)[C@H](NC(=O)[C@@H](Cc2c[nH]cn2)NC(=O)CNC(=O)[C@H](CC(C)C)NC(=O)[C@H]2CCCN2C(=S)Nc2ccc(OC3O[C@H](C)[C@H](O)[C@H](OC)[C@@H]3O)cc2)C(C)C)C(=O)OCc2c1cc1n(c2=O)Cc2cc3ccccc3nc2-1.Cl (some centres unmarked) [Example 2] |  | effected inhibitions of the tumor growth | 6.82 | 7.15 |  |  |  |  |  |  | 
CC[C@@]1(OC(=O)[C@H](NC(=O)[C@@H](Cc2c[nH]cn2)NC(=O)[C@@H](CC(C)C)NC(=O)CNC(=O)[C@H](CC(C)C)NC(=O)[C@H]2CCCN2C(=S)Nc2ccc(OC3O[C@H](C)[C@H](O)[C@H](OC)[C@@H]3O)cc2)C(C)C)C(=O)OCc2c1cc1n(c2=O)Cc2cc3ccccc3nc2-1.Cl (stereo partly drawn) [Example 3] (X1-[dP]LG[dL][dH][dV]-X2) |  |  | 7.00 | 7.30 | 19.1 | 1/5 | 6.82 | 609 | 0.04 |  | 
CC[C@@]1(OC(=O)[C@H](NC(=O)[C@@H](Cc2c[nH]cn2)NC(=O)[C@@H](CC(C)C)NC(=O)CNC(=O)[C@H](CC(C)C)NC(=O)[C@H]2CCCN2C(=O)Nc2ccc(OC3O[C@H](C)[C@H](O)[C@H](OC)[C@@H]3O)cc2)C(C)C)C(=O)OCc2c1cc1n(c2=O)Cc2cc3ccccc3nc2-1.Cl (stereo partly drawn) [Example 4] ({X3-CO}-[dP]LG[dL][dH][dV]-X2) |  |  | 7.30 | 7.40 |  |  | 6.82 | 700 |  |  | 
CC[C@@]1(OC(=O)[C@H](NC(=O)[C@@H](CC(N)=O)NC(=O)[C@@H](CC(C)C)NC(=O)CNC(=O)[C@H](CC(C)C)NC(=O)[C@H]2CCCN2C(=S)Nc2ccc(OC3O[C@H](C)[C@H](O)[C@H](OC)[C@@H]3O)cc2)C(C)C)C(=O)OCc2c1cc1n(c2=O)Cc2cc3ccccc3nc2-1 (stereo partly drawn) [Example 5] (X1-[dP]LG[dL][dN][dV]-X2) |  | effected inhibitions of the tumor growth | 7.10 | 7.22 |  |  | 6.52 | 166 |  | 19.1 | 1/5
CC[C@@]1(OC(=O)[C@H](NC(=O)[C@@H](CC(N)=O)NC(=O)[C@@H](CC(C)C)NC(=O)CNC(=O)[C@H](CC(C)C)NC(=O)[C@H]2CCCN2C(=O)Nc2ccc(OC3O[C@H](C)[C@H](O)[C@H](OC)[C@@H]3O)cc2)C(C)C)C(=O)OCc2c1cc1n(c2=O)Cc2cc3ccccc3nc2-1 (stereo partly drawn) [Example 6] ({X3-CO}-[dP]LG[dL][dN][dV]-X2) |  |  | 7.22 | 7.30 |  |  | 6.52 | 80 |  |  | 
CC[C@@]1(OC(=O)[C@H](NC(=O)[C@@H](CC(=O)O)NC(=O)[C@@H](CC(C)C)NC(=O)CNC(=O)[C@H](CC(C)C)NC(=O)[C@H]2CCCN2C(=S)Nc2ccc(OC3O[C@H](C)[C@H](O)[C@H](OC)[C@@H]3O)cc2)C(C)C)C(=O)OCc2c1cc1n(c2=O)Cc2cc3ccccc3nc2-1 (stereo partly drawn) [Example 7] (X1-[dP]LG[dL][dD][dV]-X2) |  |  | 6.70 | 7.00 |  |  | 6.22 | 9 |  |  | 
CC[C@@]1(OC(=O)[C@H](NC(=O)[C@@H](Cc2c[nH]c3ccccc23)NC(=O)[C@@H](CC(C)C)NC(=O)CNC(=O)[C@H](CC(C)C)NC(=O)[C@H]2CCCN2C(=S)Nc2ccc(OC3O[C@H](C)[C@H](O)[C@H](OC)[C@@H]3O)cc2)C(C)C)C(=O)OCc2c1cc1n(c2=O)Cc2cc3ccccc3nc2-1 (stereo partly drawn) [Example 9] (X1-[dP]LG[dL][dW][dV]-X2) |  |  | 6.40 | 6.52 |  |  | 6.00 | 64 |  |  | 
CC[C@@]1(OC(=O)[C@H](NC(=O)[C@@H](Cc2c[nH]cn2)NC(=O)[C@@H](CC(C)C)NC(=O)CNC(=O)[C@H](CC(C)C)NC(=O)[C@H]2CCCN2C(=S)Nc2ccc(OC3O[C@H](C)[C@H](O)[C@H](OC)[C@@H]3O)cc2)C(C)C)C(=O)OCc2c1cc1n(c2=O)Cc2cc3ccccc3nc2-1.Cl (stereo partly drawn) [Example 12] (X1-[dP]LG[dL][dH][dV]-X2) |  |  | 6.82 | 7.00 |  |  | 6.52 |  | 0.03 |  | 
